Data set [1] has as its target Insulin-like growth factor 1 receptor (Homo sapiens) (UniProt P08069). As to the kind of experiment: Inhibition of IGF1R at 10 uM by HTRF assay. (In general: In TR-FRET formats the signal depends on donor and acceptor labels being close together.)
Data set [2] deals with Insulin receptor (Homo sapiens) (UniProt P06213). In words: Inhibition of InR at 10 uM by HTRF assay.
The target of data set [3] is Fibroblast growth factor receptor 1 (Homo sapiens) (UniProt P11362). As to the kind of experiment: Inhibition of FGFR1 at 10 uM by HTRF assay.
Data set [4] has as its target Receptor-type tyrosine-protein kinase FLT3 (Homo sapiens) (UniProt P36888). As to the kind of experiment: Inhibition of Flt3 at 10 uM by HTRF assay.
The target in data set [5] is Epidermal growth factor receptor (Homo sapiens) (UniProt P00533). As to the kind of experiment: Inhibition of EGFR at 10 uM by HTRF assay.
In data set [6] the target is Receptor tyrosine-protein kinase erbB-2 (Homo sapiens) (UniProt P04626). As to the kind of experiment: Inhibition of ErbB2 at 10 uM by HTRF assay.
Data set [7] addresses Hepatocyte growth factor receptor (Homo sapiens) (UniProt P08581). As to the kind of experiment: Inhibition of cMET at 10 uM by HTRF assay.
Data set [8] addresses Macrophage-stimulating protein receptor (Homo sapiens) (UniProt Q04912). As to the kind of experiment: Inhibition of Ron at 10 uM by HTRF assay.
Data set [9] can be described thus: Inhibition of PKA at 10 uM by HTRF assay.
In data set [10] the target is Glycogen synthase kinase-3 beta (Homo sapiens) (UniProt P49841). In words: Inhibition of GSK3-beta at 10 uM by HTRF assay.
The target in data set [11] is Bcr/Abl fusion protein (Homo sapiens) (UniProt P00519+P11274). In words: Inhibition of bcr-Abl at 10 uM by HTRF assay. Format: protein assay.
Data set [12] concerns the target Cyclin-dependent kinase 1 (Homo sapiens) (UniProt P06493). In words: Inhibition of CDK1 at 10 uM by HTRF assay.
Data set [13] deals with Cyclin-dependent kinase 2 (Homo sapiens) (UniProt P24941). As to the kind of experiment: Inhibition of CDK2 at 10 uM by HTRF assay.
Data set [14] deals with Proto-oncogene tyrosine-protein kinase Src (Homo sapiens) (UniProt P12931). In words: Inhibition of Src at 10 uM by HTRF assay.
A short description of data set [15]: Inhibition of Bcr-Abl T315 mutant at 10 uM by HTRF assay.
Data set [16] in a line: Intrinsic permeability across human Caco-2 cells. Background: Passage across Caco-2 layers is used to estimate intestinal permeability.
Data set [17] addresses Serine/threonine-protein kinase PLK1 (Homo sapiens) (UniProt P53350). In words: Inhibition of Plk1 at 10 uM by HTRF assay.
Data set [18] has as its target T1, Vascular endothelial growth factor receptor 2 (Homo sapiens, UniProt P35968). As to the kind of experiment: Inhibition of VEGFR2 assessed as blockade of pGAT-biotin phosphorylation in presence of 2 uM ATP by HTRF assay.
In data set [19] the target is Vascular endothelial growth factor receptor 1 (Homo sapiens, UniProt P17948). In words: Inhibition of VEGFR1 assessed as blockade of pGAT-biotin phosphorylation in presence of 2 uM ATP by HTRF assay.
The target of data set [20] is T1, Vascular endothelial growth factor receptor 2. In words: Inhibition of VEGFR2 expressed in HEK293 cells assessed as inhibition of receptor phosphorylation by ELISA. The data set is classed as cell-based. (ELISA stands for enzyme-linked immunosorbent assay.)
Data set [21] deals with T2, Aurora kinase A (Homo sapiens) (UniProt O14965).
T2 sequence (whole entry): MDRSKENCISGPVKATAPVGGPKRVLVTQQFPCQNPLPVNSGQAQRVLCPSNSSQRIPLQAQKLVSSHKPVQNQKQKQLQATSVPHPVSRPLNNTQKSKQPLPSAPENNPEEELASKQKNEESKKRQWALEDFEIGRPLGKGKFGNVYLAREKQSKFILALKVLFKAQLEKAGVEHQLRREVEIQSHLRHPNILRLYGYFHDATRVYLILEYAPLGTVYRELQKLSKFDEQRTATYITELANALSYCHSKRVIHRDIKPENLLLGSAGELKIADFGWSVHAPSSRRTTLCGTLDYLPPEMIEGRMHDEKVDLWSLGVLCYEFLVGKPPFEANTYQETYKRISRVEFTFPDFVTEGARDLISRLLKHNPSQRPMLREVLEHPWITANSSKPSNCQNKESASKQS
As to the kind of experiment: Inhibition of Aurora A at 10 uM by HTRF assay.

Data set [22] concerns the target Aurora kinase B (Homo sapiens) (UniProt Q96GD4). In words: Inhibition of Aurora B at 10 uM by HTRF assay.

The structures appear in SMILES notation.

Chain of Insulin receptor (Homo sapiens) (P06213 28-758 limits assumed): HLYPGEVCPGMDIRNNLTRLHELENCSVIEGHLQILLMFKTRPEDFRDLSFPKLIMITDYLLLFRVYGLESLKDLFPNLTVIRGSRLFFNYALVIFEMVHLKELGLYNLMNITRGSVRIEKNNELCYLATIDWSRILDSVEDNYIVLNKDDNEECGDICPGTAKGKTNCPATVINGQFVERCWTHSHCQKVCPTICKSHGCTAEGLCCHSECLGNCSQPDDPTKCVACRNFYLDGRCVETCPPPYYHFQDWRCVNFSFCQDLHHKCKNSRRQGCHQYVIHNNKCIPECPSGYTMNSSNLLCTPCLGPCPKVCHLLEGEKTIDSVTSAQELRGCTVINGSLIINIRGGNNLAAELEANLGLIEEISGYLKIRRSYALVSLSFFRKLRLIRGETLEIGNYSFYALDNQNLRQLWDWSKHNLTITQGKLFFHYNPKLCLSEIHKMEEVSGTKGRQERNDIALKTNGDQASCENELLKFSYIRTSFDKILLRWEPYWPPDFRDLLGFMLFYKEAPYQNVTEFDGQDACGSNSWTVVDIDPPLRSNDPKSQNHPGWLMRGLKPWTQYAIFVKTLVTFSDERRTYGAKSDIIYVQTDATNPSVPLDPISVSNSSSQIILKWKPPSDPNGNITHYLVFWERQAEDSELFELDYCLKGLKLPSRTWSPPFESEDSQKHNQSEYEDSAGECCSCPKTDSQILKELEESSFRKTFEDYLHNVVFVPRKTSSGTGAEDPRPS
Chain of Insulin receptor (Homo sapiens) (P06213 763-1382 limits assumed): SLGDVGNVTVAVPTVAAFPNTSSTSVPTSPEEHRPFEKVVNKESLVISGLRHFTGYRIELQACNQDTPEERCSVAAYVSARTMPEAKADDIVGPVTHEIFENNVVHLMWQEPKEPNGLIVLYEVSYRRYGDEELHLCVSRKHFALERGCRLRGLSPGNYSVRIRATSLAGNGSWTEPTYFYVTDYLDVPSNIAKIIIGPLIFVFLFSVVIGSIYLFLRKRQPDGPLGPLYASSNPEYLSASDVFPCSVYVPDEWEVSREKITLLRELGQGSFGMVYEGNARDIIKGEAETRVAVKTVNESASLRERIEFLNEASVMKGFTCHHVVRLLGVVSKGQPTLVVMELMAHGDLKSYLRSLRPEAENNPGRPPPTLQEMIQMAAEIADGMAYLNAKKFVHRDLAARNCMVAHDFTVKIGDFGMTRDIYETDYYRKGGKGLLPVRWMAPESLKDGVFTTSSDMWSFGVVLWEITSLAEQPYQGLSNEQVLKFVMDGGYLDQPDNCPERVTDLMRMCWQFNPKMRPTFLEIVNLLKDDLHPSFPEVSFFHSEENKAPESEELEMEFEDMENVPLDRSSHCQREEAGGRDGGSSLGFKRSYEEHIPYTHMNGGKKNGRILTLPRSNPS
Chain of Glycogen synthase kinase-3 beta (Homo sapiens) (P49841 whole entry, looked up, the tested form may be a part): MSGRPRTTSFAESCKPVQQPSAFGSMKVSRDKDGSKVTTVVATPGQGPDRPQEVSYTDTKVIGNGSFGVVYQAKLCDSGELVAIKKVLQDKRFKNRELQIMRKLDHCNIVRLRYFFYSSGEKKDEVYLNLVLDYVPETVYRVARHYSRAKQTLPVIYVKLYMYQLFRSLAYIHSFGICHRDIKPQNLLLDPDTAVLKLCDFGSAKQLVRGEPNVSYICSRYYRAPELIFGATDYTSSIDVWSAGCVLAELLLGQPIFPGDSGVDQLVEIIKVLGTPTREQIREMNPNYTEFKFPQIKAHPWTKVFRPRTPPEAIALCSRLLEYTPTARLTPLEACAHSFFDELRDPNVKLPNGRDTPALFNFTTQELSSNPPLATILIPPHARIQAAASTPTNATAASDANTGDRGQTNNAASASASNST
Chain of Cyclin-dependent kinase 1 (Homo sapiens) (P06493 whole entry, looked up): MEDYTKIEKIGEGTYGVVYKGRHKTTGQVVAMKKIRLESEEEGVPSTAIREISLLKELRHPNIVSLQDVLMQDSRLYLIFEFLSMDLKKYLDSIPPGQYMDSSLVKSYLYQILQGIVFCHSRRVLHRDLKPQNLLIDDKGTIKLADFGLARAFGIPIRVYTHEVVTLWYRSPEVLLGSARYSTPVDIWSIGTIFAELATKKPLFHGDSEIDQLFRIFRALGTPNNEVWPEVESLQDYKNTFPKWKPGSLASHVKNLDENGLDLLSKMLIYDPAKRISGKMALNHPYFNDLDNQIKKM
Chain of Bcr/Abl fusion protein (Homo sapiens) (P00519 whole entry, looked up, the tested form may be a part): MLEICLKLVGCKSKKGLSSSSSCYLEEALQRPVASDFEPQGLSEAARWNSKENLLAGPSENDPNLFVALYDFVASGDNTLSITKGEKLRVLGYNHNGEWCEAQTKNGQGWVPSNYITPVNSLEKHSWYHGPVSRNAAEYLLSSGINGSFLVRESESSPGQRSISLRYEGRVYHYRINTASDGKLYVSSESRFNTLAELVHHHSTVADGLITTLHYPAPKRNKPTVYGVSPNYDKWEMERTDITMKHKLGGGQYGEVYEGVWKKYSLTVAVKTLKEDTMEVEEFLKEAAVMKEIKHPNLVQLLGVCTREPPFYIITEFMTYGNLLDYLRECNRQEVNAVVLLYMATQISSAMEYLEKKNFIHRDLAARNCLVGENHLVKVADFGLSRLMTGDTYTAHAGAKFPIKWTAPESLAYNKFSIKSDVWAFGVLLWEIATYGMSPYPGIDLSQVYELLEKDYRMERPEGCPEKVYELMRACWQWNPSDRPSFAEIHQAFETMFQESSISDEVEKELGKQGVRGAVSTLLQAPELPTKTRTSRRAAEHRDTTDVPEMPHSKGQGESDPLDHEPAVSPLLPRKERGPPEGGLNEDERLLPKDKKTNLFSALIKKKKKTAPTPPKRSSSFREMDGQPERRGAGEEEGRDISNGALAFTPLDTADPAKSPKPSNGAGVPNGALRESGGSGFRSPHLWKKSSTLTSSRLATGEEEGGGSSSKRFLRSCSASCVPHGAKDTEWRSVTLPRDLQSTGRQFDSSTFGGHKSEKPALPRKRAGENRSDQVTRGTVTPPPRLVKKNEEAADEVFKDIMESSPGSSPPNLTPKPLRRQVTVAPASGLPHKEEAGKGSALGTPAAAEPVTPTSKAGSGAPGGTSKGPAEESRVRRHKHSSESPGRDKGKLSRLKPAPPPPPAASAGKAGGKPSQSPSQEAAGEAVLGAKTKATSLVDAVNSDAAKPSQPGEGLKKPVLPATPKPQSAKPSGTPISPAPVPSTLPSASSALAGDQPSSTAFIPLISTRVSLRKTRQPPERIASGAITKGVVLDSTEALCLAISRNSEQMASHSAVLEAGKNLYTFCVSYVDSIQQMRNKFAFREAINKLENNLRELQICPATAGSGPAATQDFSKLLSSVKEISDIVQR
Chain of Bcr/Abl fusion protein (Homo sapiens) (P11274 whole entry, looked up, the tested form may be a part): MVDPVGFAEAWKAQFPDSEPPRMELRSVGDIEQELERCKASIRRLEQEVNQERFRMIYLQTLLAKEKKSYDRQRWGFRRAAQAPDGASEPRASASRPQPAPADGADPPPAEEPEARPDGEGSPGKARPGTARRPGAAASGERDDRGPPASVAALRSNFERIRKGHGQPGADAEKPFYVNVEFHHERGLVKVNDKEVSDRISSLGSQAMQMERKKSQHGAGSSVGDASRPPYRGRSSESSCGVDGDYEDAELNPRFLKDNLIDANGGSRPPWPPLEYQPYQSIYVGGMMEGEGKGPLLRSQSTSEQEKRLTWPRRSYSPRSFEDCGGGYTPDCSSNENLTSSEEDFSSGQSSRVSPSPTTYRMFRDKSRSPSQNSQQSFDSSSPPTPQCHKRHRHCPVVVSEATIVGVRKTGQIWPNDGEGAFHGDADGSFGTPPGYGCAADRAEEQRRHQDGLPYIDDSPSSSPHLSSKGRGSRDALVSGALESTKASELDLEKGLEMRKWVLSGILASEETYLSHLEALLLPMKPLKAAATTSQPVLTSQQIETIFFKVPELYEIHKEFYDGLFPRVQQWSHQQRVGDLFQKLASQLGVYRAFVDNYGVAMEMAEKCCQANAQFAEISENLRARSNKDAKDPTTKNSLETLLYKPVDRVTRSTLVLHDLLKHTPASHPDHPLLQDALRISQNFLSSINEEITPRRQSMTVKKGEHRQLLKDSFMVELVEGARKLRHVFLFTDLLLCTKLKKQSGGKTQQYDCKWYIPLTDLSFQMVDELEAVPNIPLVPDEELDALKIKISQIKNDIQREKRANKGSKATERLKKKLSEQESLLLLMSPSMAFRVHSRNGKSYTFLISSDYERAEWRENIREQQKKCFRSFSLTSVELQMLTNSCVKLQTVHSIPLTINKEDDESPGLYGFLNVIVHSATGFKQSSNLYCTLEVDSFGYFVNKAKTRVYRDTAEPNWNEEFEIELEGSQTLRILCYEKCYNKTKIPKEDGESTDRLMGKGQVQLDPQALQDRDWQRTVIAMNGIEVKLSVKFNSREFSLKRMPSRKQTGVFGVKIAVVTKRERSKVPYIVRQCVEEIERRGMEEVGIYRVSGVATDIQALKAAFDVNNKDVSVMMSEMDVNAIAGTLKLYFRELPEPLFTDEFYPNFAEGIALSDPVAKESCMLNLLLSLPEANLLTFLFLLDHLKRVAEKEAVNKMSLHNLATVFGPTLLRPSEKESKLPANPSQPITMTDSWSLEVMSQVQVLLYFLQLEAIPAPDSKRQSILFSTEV
Chain of Aurora kinase B (Homo sapiens) (Q96GD4 whole entry): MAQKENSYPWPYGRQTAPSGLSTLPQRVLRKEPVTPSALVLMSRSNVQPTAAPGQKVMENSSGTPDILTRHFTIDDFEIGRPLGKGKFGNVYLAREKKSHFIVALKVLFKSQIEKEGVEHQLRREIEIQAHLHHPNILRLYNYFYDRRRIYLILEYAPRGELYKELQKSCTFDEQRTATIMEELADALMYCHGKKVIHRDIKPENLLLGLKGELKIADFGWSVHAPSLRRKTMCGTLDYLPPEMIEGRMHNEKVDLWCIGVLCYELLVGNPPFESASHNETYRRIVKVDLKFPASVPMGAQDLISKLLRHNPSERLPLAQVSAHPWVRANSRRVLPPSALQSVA

In the case of `O=C(Nc1cccc(C(F)(F)F)c1)c1nscc1NCc1ccnc2ccccc12`, the inhibition in data set [1], in data set [2], in data set [3], in [4], in [5] and in data set [6] was < 30% throughout. Besides, the inhibition in [7], in data set [8], in [9], in [10], in [11] and in data set [12] was < 30% throughout. Besides, the inhibition in [13], in data set [14] and in [15] was < 30% each time. In addition, the Papp in [16] was 2.72 ×10⁻⁶ cm/s.
For the molecule `CC(C)(C)c1cccc(NC(=O)c2nscc2NCc2ccncc2)c1`, the inhibition in data set [1], in data set [2], in data set [3], in [4], in data set [5] and in data set [6] was < 30% each time. Also, the inhibition in data set [7], in data set [8], in data set [9], in data set [10], in data set [11] and in data set [12] was < 30% each time. For the same molecule, the inhibition in [13], in data set [14] and in data set [15] was < 30% in each case. This molecule also showed a Papp in [16] of 5.58 ×10⁻⁶ cm/s.
Turning to `O=C(Nc1cccc(Br)c1)c1nscc1NCc1ccncc1`, the inhibition in data set [17], in data set [1], in data set [2], in [3], in data set [4] and in data set [5] was < 30% in each case. Further, the inhibition in data set [6], in data set [7], in data set [8], in data set [9], in data set [10] and in data set [11] was < 30% each time. In addition, the inhibition in data set [12], in [13], in [14], in data set [21], in data set [22] and in data set [15] was < 30% in each case. The IC50 is 27 nM in data set [18], 55 nM in data set [19] and 210 nM in [20].
As for `O=C(Nc1ccc(Cl)c(Cl)c1)c1nscc1NCc1ccncc1`, the inhibition in data set [17], in [1], in data set [2], in data set [3], in data set [4] and in [5] was < 30% each time. The inhibition in data set [6], in [7], in data set [8], in [9], in data set [10] and in data set [11] was < 30% throughout. In addition, the inhibition in [12], in [13], in data set [14], in data set [21], in [22] and in data set [15] was < 30% each time. Also, the values for the IC50 in data set [18], in data set [19] and in [20] were 670 nM, 750 nM and 1110 nM, respectively.
Regarding `O=C(Nc1cccc(Br)c1)c1nscc1NCCc1ccc2c(c1)OCO2`, the inhibition in data set [17], in data set [1], in data set [2], in [3], in [4] and in [5] was < 30% in each case. For the same molecule, the inhibition in data set [6], in [7], in [8], in data set [9], in data set [10] and in data set [11] was < 30% in each case. Besides, the inhibition in data set [12], in data set [13], in data set [14], in [21], in [22] and in data set [15] was < 30% throughout. In addition, the IC50 in data set [18], in data set [19] and in data set [20] was > 10000 nM throughout.
In the case of `O=C(Nc1ccc(C(F)(F)F)c(Cl)c1)c1nscc1NCc1ccncc1`, the inhibition in data set [17], in data set [1], in data set [2], in [3], in data set [4] and in data set [5] was < 30% each time. The inhibition in data set [6], in [7], in data set [8], in [9], in [10] and in [11] was < 30% each time. Further, the inhibition in data set [12], in data set [13], in [14], in data set [21], in data set [22] and in [15] was < 30% throughout. Further, the IC50 stood at 890 nM in data set [18], 1800 nM in data set [19] and 2050 nM in [20].
For `O=C(Nc1cccc(C(F)(F)F)c1)c1nscc1NCCc1ccc2c(c1)OCO2`, the inhibition in [17], in data set [1], in data set [2], in [3], in data set [4] and in [5] was < 30% in each case. The inhibition in data set [6], in data set [7], in data set [8], in data set [9], in data set [10] and in [11] was < 30% in each case. The inhibition in [12], in data set [13], in data set [14], in data set [21], in [22] and in data set [15] was < 30% throughout. Also, the IC50 in data set [18], in data set [19] and in data set [20] was > 10000 nM in each case.
Consider `O=C(Nc1cccc(Br)c1)c1nscc1NCc1ccnc2ccccc12`, for which the inhibition in [1], in data set [2], in data set [3], in data set [4], in data set [5] and in [6] was < 30% in each case. The inhibition in data set [7], in [8], in data set [9], in data set [10], in [11] and in data set [12] was < 30% in each case. Further, the inhibition in data set [13], in [14] and in [15] was < 30% in each case. Besides, the Papp in data set [16] is 3.58 ×10⁻⁶ cm/s.
In the case of `O=C(NCc1ccc2c(c1)OCO2)c1nscc1NCc1ccncc1`, the inhibition in [17], in data set [1], in [2], in data set [3], in data set [4] and in data set [5] was < 30% each time. Besides, the inhibition in data set [6], in data set [7], in data set [8], in [9], in [10] and in [11] was < 30% in each case. In addition, the inhibition in [12], in [13], in [14], in data set [21], in data set [22] and in data set [15] was < 30% each time. Moreover, the IC50 is 650 nM in [18], 700 nM in data set [19] and 790 nM in data set [20].

The term inhibition denotes the relative decrease from the control value, in per cent. The low end stands for little suppression, the high end for strong suppression. As usually defined, the Papp is a coefficient for how fast a substance crosses the barrier. Low values mean slow passage, high ones fast passage. In general, IC50 refers to the midpoint of a concentration-inhibition curve.

These data come from ChEMBL document CHEMBL1136839, “3,4-Disubstituted isothiazoles: novel potent inhibitors of VEGF receptors 1 and 2” (Bioorg Med Chem Lett, 2009).
